The results in this text go back to US4190665A, “Substituted arylaliphatic acids” (Lipha, Lyonnaise Industrielle Pharmaceutique, priority 1976, dated 1980).

One may read the LD50 as the dose at which mortality reaches 50%. Low readings indicate greater toxicity, high ones lower toxicity.

For data set [1], the system named is erythema (produced by exposure to ultraviolet radiation) of the shaved back of the guinea pig. Kind of data set: UV erythema test on the guinea pig (Winder et al.), anti-inflammatory effect. The conditions noted are these: Cavia porcellus, po, orally, read-out: Active Dose 50 (decreased erythema by 50%). The class given is in vivo, albino guinea pig. The procedure:
(§1) The anti-inflammatory effect of the new drugs was determined in two tests.
(b) In the UV erythema test on the guinea pig (Winder, C. V., Wax, J., Burr, V., Been, M., Rosiere, C. E., Arch. Int. Pharmacodyn., 116, 261, 1958) the protective activity against precocious inflammation in the albino guinea pig was investigated. A determination was made of the active dose 50 which, administered orally to the animal, decreased erythema (produced by exposure to ultraviolet radiation) of the shaved back of the guinea pig by 50%.

For data set [2], the system named is edema triggered by injecting a carrageenin suspension into the sole of the foot of the rat. Kind of data set: carrageenin-induced edema test (Winter and Risley), anti-inflammatory effect. It is filed as in vivo. The note with it: po, orally, read-out: AD30 orally (active dose 30, inhibiting edema development by 30%). The procedure:
as §1
(a) In the carrageenin-induced edema test according to Winter, C. A. and Risley, E. A. (Proc. Soc. Exp. Biol. Med. 1962, 111, 544-547) the protection conferred by the drug administered orally to the rat against an edema triggered by injecting a carrageenin suspension into the sole of the foot of the rat was investigated. The table below gives the "active dose 30" (inhibiting edema development by 30%) of both compounds.
In general terms: In the carrageenan paw model, swelling and tenderness develop within hours.

Data set [3] in a line: LD50, orally, mouse (acute toxicity). The conditions noted are these: in vivo, po.
Data set [4] concerns painful contractures, caused by intraperitoneal injection of a dilute acetic acid solution. Kind of data set: analgesic activity in the mouse by the method of Koster (acetic acid contractures). It is filed as in vivo. The conditions noted are these: po, orally, read-out: Active Dose 50 (diminished painful contractures by 50%). The text has this:
The analgesic activity can be determined in the mouse by the method of Koster, R., Anderson, M., Debeer, E. J., Federation Proc., 1959, 18, 412. A determination was made of the active dose 50 of the drug which, administered orally, diminished painful contractures, caused by intraperitoneal injection of a dilute acetic acid solution, by 50%.

As to `CC(C(=O)O)c1ccc(-n2cccc2)c([N+](=O)[O-])c1` (centres unmarked) [Compound A, 2-(3'-nitro-4'-[1"-pyrrolyl]phenyl) propionic acid], the ED50 stood at 18.4 mg/kg in data set [1] and 50 mg/kg in data set [4]. In addition, the ED30 in data set [2] was determined as 12 mg/kg. Moreover, in data set [3], the LD50 was 3200 mg/kg.

For `CC(C(=O)O)c1ccc(-n2cccc2)c(N)c1` (centres unmarked) [Compound B, 2-(3'-amino-4'-[1"-pyrrolyl]phenyl) propionic acid], the ED50 in data set [1] is 4.7 mg/kg; in data set [4], 19 mg/kg. Further, the ED30 in data set [2] turned out to be 12 mg/kg. The 50% lethal dose (LD50) in data set [3] was 3000 mg/kg.
